One data set deals with RH41^shNEU1 cells. Put plainly: DOXO dose response, apoptotic response (cleaved PARP immunoblot). Type of data set: cell-based, human. The conditions noted are these: compared with corresponding unmodified cells. Here is the method:
(§1) Finally, we generated DOXO dose response curves in both parental cell lines and the modified lines to examine the differences in their apoptotic responses. Immunoblots of the cleaved poly (ADP-ribose) polymerase (PARP), a canonical apoptotic marker, were used for this purpose (data not shown).
(§2) RH30 cells were transduced with the pBABE-puro retroviral vector (AddGene), either unmodified or containing the human NEU1 cDNA. Transduced cells were selected with puromycin (2 μg/mL), according to the predetermined sensitivity of the cell line, and were maintained in 0.5 μg/mL selection medium. RH41 cells were transfected with a panel of NEU1 shRNA plasmids (RHS4533-NM000434, Open Biosystems) or the accompanying empty vector control. The cells were selected with puromycin and maintained under selection medium.

For the next data set, the system named is RH30^NEU1 cells. The description is as above. It is filed as cell-based, human. The note with it: compared with unmodified controls. As to the method:
as §1, §2

For another data set, the system named is SKNEP1 cells. Briefly: DOXO response of Ewing sarcoma cell line. The note with it: low-NEU1 cells. Type of data set: cell-based. From the text:
(§3) We, therefore, characterized other tumor cell lines, in terms of their invasive potential and NEU1 status. We chose the Ewing sarcoma cell lines, EW8 and SKNEP1, for their divergent NEU1 levels. Similar to the RMS cell lines, the low-NEU1 SKNEP1 cells accumulated oversialylated LAMP1, were resistant to DOXO, and more successfully invaded matrigel and peritoneal basement membranes than did the high-NEU1 DOXO-sensitive EW8 cells (data not shown). We also analyzed the colon carcinoma cell lines, SW480 and SW620, because of their well-characterized derivation (Leibovitz et al., 1976): SW480 cells are from a primary colon carcinoma; SW620 cells are from a metastatic recurrence. […] This was also paralleled by a drastic increase in LAMP1 levels compared to that in SW480 (data not shown).

In a further data set the test system is EW8 cells. Briefly: DOXO response of Ewing sarcoma cell line. The conditions noted are these: high-NEU1 cells. Type of data set: cell-based.
Text: as §3

A further data set relates to RH30 cells. Put plainly: Doxorubicin efflux assay. Type of data set: cell-based, human. The note with it: 3 μg/mL DOXO for 2 hours, then DOXO-free medium for 2 hours. As to the method:
Cells were plated and maintained at 50% confluency. The next day, they were treated with medium containing 3 μg/mL DOXO for 2 hours. Treated cells were then washed 3 times with PBS and cultured in DOXO-free medium for an additional 2 hours, to allow efflux of the drug into fresh medium. The conditioned medium was then centrifuged at 1000 rpm […] for 5 minutes and a 500 μL aliquot was spun through an ULTRAFREE-MC 0.1 μm Eppendorf centrifugal filter (Millipore) to capture the effluxed drug. The filter was then placed on a microscopic slide and images of the red fluorescence filter were taken on a Nikon Cl microscope.

The test system of the next data set is RH41 cells. Briefly: Doxorubicin exposure, apoptotic response (cleaved PARP immunoblot). It is filed as cell-based, human. The conditions noted are these: parental RH41 cells, high NEU1. On the technique in general: A western blot detects proteins with antibodies after separation by electrophoresis.

One molecule from US12640251B2, “Methods of treating dementia associated with alzheimer's disease with protective protein/cathepsin A (PPCA)” (St. Jude Children's Research Hospital, priority 2011, dated 2026) can be followed below.

SMILES strings stand for the structures. Entries after “also recorded” stand apart in the source; their conditions may differ.

On to `COc1cccc2c1C(=O)c1c(O)c3c(c(O)c1C2=O)C[C@@](O)(C(=O)CO)C[C@@H]3O[C@H]1C[C@H](N)[C@H](O)[C@H](C)O1` [doxorubicin], for which the “apoptotic response to DOXO” value in the data set with RH41^shNEU1 cells was “more resistant to apoptosis”; with RH30^NEU1 cells, “more sensitive”. Moreover, the “response to DOXO” value in the data set on SKNEP1 cells is on record as “resistant”; with EW8 cells it was “sensitive”. For the same molecule, in the data set on RH30 cells, the “efflux of DOXO into culture medium (red fluorescence)” value is on record as “released from these cells”. Moreover, the “response to doxorubicin (apoptosis)” value with RH41 cells is recorded as “highly susceptible; also recorded: readily apoptosed”.
